Where two headings read alike, the source gives them in different places.
Tests used:
[1] = system: Normal Endothelial Cell (EAhy926 cell strain); assay: MTT cell viability assay; assay type: cell-based, human
Description: (§1) The cell viability was determined by a method of […] (MTT assay). The test method for assaying cell viability refers to steps provided by Parada-Turska et al.
The breast tumor cells MDA-MB-231 were inoculated in a 24-well plate (2.5×10^5 cells/well), and the next day after cells were adhered to the wall of the plate, the cells were washed with PBS. 1% FBS-DMEM culture medium was then added so as to synchronize cells. The next day compound II having different concentrations were added into the wells, and the cells were subsequently cultured in an atmosphere of 5% CO2 at 37° C. for 24 h. The cells were washed with PBS once, and 400 μl MTT agent was added in each well so as to react for 4 h. […] 200 μl supernatant was taken from the well and then added into a 96-well microplate, so as to measure the absorbance at 570 nm.
In the MTT assay, the umbilical vein endothelial cells (EAhy926 cell strain) was planted 80 percent full and cultured in a 1×HAT culture medium including 15% FBS-DMEM, 1% glutamine and 1% PSN (used for screening cells having the characteristic of cell fusion). […] The culture medium was replaced in 24 h before the experiment, and the number of cells was counted by a hemocytometer. […] The supernatant was taken and putted into a 96-well microplate, and then the absorbance was measured at a wavelength of 570 nm.

[2] = system: E-cadherin and Vimentin in cells of tumor inoculated nude mice; assay: immunochemistry staining of E-cadherin and Vimentin in tumors of nude mice; assay type: in vivo; settings: 0.75 mg/Kg everyday
Description: ICC includes embedding the tumor cells in paraffin and slicing the embedded cells into slides having a thickness of […] by a slicer, deparaffinizing, rehydrating and renaturating, picking the slide out and putting the slide into the primary antibody E-cadherin; reacting for 1.5 h and washing the slide for three times with PBS, reacting with the secondary antibody for 30 min and washing the slide for three times with PBS, staining the slide with 3′,3′-diaminobenzendine (DAB) at a ratio of 1:30, and the slide was mounted with Entellanz. The expression amount of signaling-related proteins in the cells of tumor inoculated nude mice was detected by an immunochemistry staining method. In this test the expression of E-cadherin and Vimentin was particularly detected. Immunochemistry staining method and the quantitative method thereof were described as in the test example 2-2, and it is not illustrated any further. FIG. 29 illustrates photomicrographs of expression results of signaling-related proteins in the cells of tumor inoculated nude mice after the cells were stained through the immunochemistry staining method. FIGS. 30 and 31 were respective quantitative results of primary antibody reaction.

[3] = system: breast tumor cells MDA-MB-231; assay: MTT cell viability assay; assay type: cell-based, human; settings: for IC50: Homo sapiens; for cell viability: FIG. 13
Description: The breast tumor cells (MDA-MB-231, MDA-MB-435, MDA-MB-453, MDA-MB-468 and MCF-7) were commercially obtained from the bioresource collection and research center (BCRC), and were cultured in a 10% FBS-DMEM culture medium (i.e., a DMEM culture medium including 10% fetal bovine serum (FBS)). The human breast cell MCF-10A was cultured in a 5% FBS-DMEM culture medium (including F12, insulin, hydrocortisol and epidermal growth factor). An environment of 5% CO2 was kept in the incubator at a constant temperature of 37° C. When a certain number of cells were generated in culture, the culture medium was removed after being centrifuged for 10 min at a rate of 900 rpm. The culture medium was replaced in 24 h before the experiment, and the number of cells was counted by a hemocytometer.
as §1
The breast tumor cells MDA-MB-231 were inoculated in a 24-well plate (2.5×10^5 cells/well), and the next day after cells were adhered to the wall of the plate, the cells were washed with PBS. 1% FBS-DMEM culture medium was then added so as to synchronize cells. The next day compound II having different concentrations were added into the wells, and the cells were subsequently cultured in an atmosphere of 5% CO2 at 37° C. for 24 h. The cells were washed with PBS once, and 400 μl MTT agent was added in each well so as to react for 4 h. Then 400 μl 10% SDS was added in each well so as to react for 12 h. 200 μl supernatant was taken from the well and then added into a 96-well microplate, so as to measure the absorbance at 570 nm.
FIG. 13 separately illustrates the viabilities of cells treated with the compound II in different doses, and whether the viabilities of cells were recovered when the cells were treated with both the compound II and the antioxidant NAC, so as to illustrate the effect of increased reactive oxygen species caused by the compound II on the tumor cell proliferation. The test method for measuring the cell viability refers to steps described in test example 2-1. The breast tumor cells MDA-MD-231 were treated with the compound II of 0, 2, 5, 7.5, 10 and 15 μM for 24 h, and then the effect of the compound II on viability of breast tumor cells MDA-MD-231 was observed. FIG. 13 is a quantitative diagram, the data result was represented by mean±SD values, where n=3.

- IC50 ([3]; MDA-MB-231, 0-40 μM for 24 h, FIG. 1A, read-out: IC50 for inhibiting the MDA-MB-231): ~6.5 µM
- IC50 ([3]; viability, MDA-MB-231 cell strain, Table 1, read-out: IC50): 7.51 µM
Compound: COC1=C(OC)C(=O)C(C)=C(C)C1=O [compound II]
- cell viability ([1]; EAhy926, concentration above 10 μM, 10 ng/mL TNF-α/TGF stimulation, FIG. 18): significantly decreased
- IC50 ([1]; Homo sapiens, EA.hy 926, viability, EAhy926 cell strain): 35.1 µM
- expression amount of proteins used for facilitating tumor proliferation in tumor tissues [2]: low
- expression amount of proteins used for inhibiting tumor proliferation in tumor tissues [2]: high
- cell viability ([3]; MDA-MB-231, 2-15 μM, 24 h): significantly decreased
- cell viability ([3]; MDA-MB-231, with antioxidant NAC): not influenced

Source: patent publication US20150087722A1, “TREATMENT FOR BREAST TUMOR CELL METASTASIS” (China Medical University, priority 2012, published 2015)
